Source: the NIST ThermoML archive (doi:10.1016/j.jct.2013.09.035)
± gives the expanded uncertainty stated by the source.

Details: Liquid, Vibrating tube method

SMILES: FCC(F)(F)F [1,1,1,2-tetrafluoroethane]
- mass density (283.25 K, 60000 kPa): 1416.44 ± 1.6 kg/m3
- mass density (283.26 K, 1000 kPa): 1265.88 ± 0.5 kg/m3
- mass density (283.26 K, 5000 kPa): 1282.35 ± 0.65 kg/m3
- mass density (283.26 K, 10000 kPa): 1300.86 ± 0.57 kg/m3
- mass density (283.26 K, 20000 kPa): 1331.64 ± 0.6 kg/m3
- mass density (283.26 K, 40000 kPa): 1379.61 ± 1.1 kg/m3
- mass density (283.26 K, 80000 kPa): 1446.35 ± 1.6 kg/m3
- mass density (302.84 K, 20000 kPa): 1276.99 ± 0.73 kg/m3
- mass density (302.84 K, 40000 kPa): 1333.11 ± 1.1 kg/m3
- mass density (302.84 K, 80000 kPa): 1408.64 ± 1.5 kg/m3
- mass density (302.85 K, 1000 kPa): 1190.34 ± 0.51 kg/m3
- mass density (302.85 K, 5000 kPa): 1214.03 ± 0.51 kg/m3
- mass density (302.85 K, 10000 kPa): 1238.45 ± 0.55 kg/m3
- mass density (302.85 K, 60000 kPa): 1374.79 ± 1.1 kg/m3
- mass density (322.62 K, 5000 kPa): 1140.59 ± 0.63 kg/m3
- mass density (322.63 K, 10000 kPa): 1174.6 ± 0.56 kg/m3
- mass density (322.63 K, 20000 kPa): 1224.02 ± 0.64 kg/m3
- mass density (322.64 K, 40000 kPa): 1290.68 ± 0.88 kg/m3
- mass density (322.64 K, 60000 kPa): 1338.04 ± 0.98 kg/m3
- mass density (322.64 K, 80000 kPa): 1375.39 ± 1.4 kg/m3
- mass density (342.56 K, 5000 kPa): 1047.23 ± 0.84 kg/m3
- mass density (342.56 K, 10000 kPa): 1098.48 ± 0.71 kg/m3
- mass density (342.56 K, 20000 kPa): 1163.35 ± 0.49 kg/m3
- mass density (342.56 K, 40000 kPa): 1242.84 ± 0.65 kg/m3
- mass density (342.57 K, 60000 kPa): 1296.48 ± 0.86 kg/m3
- mass density (342.57 K, 80000 kPa): 1337.6 ± 1.3 kg/m3
- mass density (362.57 K, 5000 kPa): 924.58 ± 1.2 kg/m3
- mass density (362.58 K, 10000 kPa): 1014.86 ± 0.8 kg/m3
- mass density (362.58 K, 20000 kPa): 1102.88 ± 0.54 kg/m3
- mass density (362.58 K, 40000 kPa): 1197.86 ± 0.69 kg/m3
- mass density (362.58 K, 60000 kPa): 1258.31 ± 0.81 kg/m3
- mass density (362.58 K, 80000 kPa): 1303.78 ± 1.2 kg/m3
